The values below come from patent US20220289756A1, “COMPOUNDS AND COMPOSITIONS AS INHIBITORS OF PROTEIN KINASES” (priority 2021, published 2022).

One test concerns the target T1, ABL (WT) (Homo sapiens, UniProt P00519).
T1 construct: purchased BPS Biosciences (named as the lab that ran the assay)
Put plainly: Abl kinase activity assay, Kinase-Glo Plus luminescence (BPS Biosciences). Format: biochemical. Particulars: 10 μM ATP. The procedure:
(§1) Assay was conducted by BPS Biosciences, 6405 Mira Mesa Blvd. Suite 100. San Diego, Calif. 92121. United States
(§2) • The assay was performed using Kinase-Glo Plus luminescence kinase assay kit (Promega). It measures kinase activity by quantitating the amount of ATP remaining in solution following a kinase reaction. The luminescent signal from the assay is correlated with the amount of ATP present and is inversely correlated with the amount of kinase activity. • The testing compounds were diluted in 10% DMSO and 5 μl of the dilution was added to a 50 μl reaction so that the final concentration of DMSO is 1% in all of reactions. All of the enzymatic reactions were conducted at 30° C. for 45 minutes. The 50 μl reaction mixture contains 40 mM Tris, pH 7.4, 10 mM MgCl2, 0.1 mg/ml BSA, 1 mM DTT, 10 μM ATP, Kinase substrate and the enzyme. After the enzymatic reaction, 50 μl of Kinase-Glo Plus Luminescence kinase assay solution (Promega) was added to each reaction and incubated on the plate for 15 minutes, at room temperature. Luminescence signal was measured using a BioTek Synergy 2 microplate reader.
(§3) • Kinase activity assays were performed in duplicate at each concentration. The luminescence data were analyzed using the computer software, Graphpad Prism. The difference between luminescence intensities in the absence of Kinase (Lut) and in the presence of Kinase (Luc) was defined as 100% activity (Lut−Luc). Using luminescence signal (Lu) in the presence of the compound, % activity was calculated as: • % activity={(Lut−Lu)/(Lut−Luc)}×100%, where Lu=the luminescence intensity in the presence of the compound. The values of % activity versus a series of compound concentrations were then plotted using non-linear regression analysis of Sigmoidal dose-response curve generated with the equation Y=B+(T−B)/1+10 ((LogEC50−X)×Hill Slope), where Y=percent activity, B=minimum percent activity, T=maximum percent activity, X=logarithm of compound and Hill Slope=slope factor or Hill coefficient. The IC 50 value was determined by the concentration causing a half-maximal percent activity.
On the technique in general: Kinase-Glo measures the ATP left after a reaction by luminescence.

The target of the next test is T2, Abl(T315I) (Homo sapiens, UniProt P00519, T315I).
T2 construct: purchased BPS Biosciences (named as the lab that ran the assay)
Put plainly: Abl(T315I) kinase activity assay, Kinase-Glo Plus luminescence (BPS Biosciences). Format: biochemical. Particulars: 10 μM ATP. Here is the method: as §1, §2, §3

Where [1] appears, read: 10 nM compound, read-out: % Inhibition of Compound 55 @10 nM.
Where [2] appears, read: 100 nM compound, read-out: % Inhibition of Compound 55 @100 nM.

The term inhibition denotes the drop in the measured response relative to a control, in per cent. In the case of `Cc1ccc(C(=O)Nc2ccc(CN3CCN(C)CC3)c(C(F)(F)F)c2)cc1C12CC(c3cnc4cccnn34)(C1)C2` [Compound 55, 3-(3-(imidazo[1,2-b]pyridazin-3-yl)bicyclo[1.1.1]pentan-1-yl)-4-methyl-N-(4-((4-methylpiperazin-1-yl)methyl)-3-(trifluoromethyl)phenyl)benzamide], the inhibition at 0.01 µM at ABL (WT) (setting [1]) and on Abl(T315I) (setting [1]) was > 10% throughout. In addition, the inhibition at 0.1 µM at ABL (WT) (setting [2]) and at Abl(T315I) (setting [2]) was > 25% throughout. Besides, the IC50 at ABL (WT) (read-out: IC-50 of Compound 55) and on Abl(T315I) (read-out: IC-50 of Compound 55) was < 500 nM throughout.
